The source of these data is patent US20250176877A1, “SENSING PLATFORMS WITH NEEDLES AND METHODS OF FABRICATION AND USE” (Purdue Research Foundation, priority 2023, published 2025).

This experiment relates to HL-1 cells. The settings on record: 100 nM nifedipine, control without drug 0.85±0.17 mV.

Protocol: The surface of the sensing platform 10 was coated with a gelatin solution to ensure cell adhesion, and no additional functionalization agents were used. […] To further improve the adhesion of the needles 12 to the cell membrane, mechanoporation was conducted by centrifuging at 500 rpm for one minute. Electroporation was followed using a series of biphasic square pulses to facilitate electrical access to the intracellular region. […] In order to showcase the live imaging capabilities through the optical transparency of the sensing platform 10, concurrent calcium ion (Ca^2+) flux imaging was simultaneously performed using an inverted microscope—a standard tool that is compatible only with transparent substrates. For Ca^2+ flux imaging, Fluo-8, a fluorescent calcium indicator, was loaded into the cells for live imaging, and the alteration in fluorescent intensity (AF) was measured and compared with the resting intensity (F0).
To evaluate the signal quality of the sensing platform 10, a comparative analysis of signal amplitude was conducted in comparison to a control group including the needles on a Si wafer. The measurements were limited to the cells that had been beating at approximately 1 Hz for at least one day, as the recorded amplitude and beating interval can vary with cell culture age.

On to `COC(=O)C1=C(C)NC(C)=C(C(=O)OC)C1c1ccccc1[N+](=O)[O-]` [nifedipine], for which the “peak amplitude of action potential” value is 0.55±0.12 mV.
